Laboratory results reported in publication PMC11678869, “Functional Role of Odorant-Binding Proteins in Response to Sex Pheromone Component Z8-14:Ac in Grapholita molesta (Busck)” (Insects, 2024).

Assays:
PFM males [1] = assay: Field trapping with delta traps, peach orchard; format: in vivo, Grapholita funebrana
Experimental: (§1) To determine the inhibitory effects on OFM male adults and the impact on the trapping effects of PFM male adults, varying amounts of Z8-14:Ac (0, 5, 10, 25, 50, 75, 100, 125, 150 μg) or Z10-14:Ac (0, 25, 50, 100, 150, 250, 350, 450, and 550 μg) were added to rubber septa loaded with a constant dosage of the main pheromone (500 μg of Z8-12:Ac and 20 μg of E8-12:Ac) of the PFM. Trapping experiments of Z8-14:Ac were carried out in peach and pear orchards in Yan’an and Xinjiang (China), respectively. Trapping tests of Z10-14:Ac were performed in pear orchards in Xinjiang (China). Each orchard had nine plots, with three plots in one field. Each plot consisted of a linear arrangement of traps loaded with a constant dosage of the main pheromones and different percentages of the secondary pheromone Z8-14:Ac or Z10-14:Ac of the PFM. Plots in the same field were placed 30 m apart, and fields were ≥1 km apart. The traps were hung 1.4 m from the ground on a suspension bracket between two rows of peach or pear trees from 10 June to 25 July 2021 in Xinjiang and from 15 June to 30 July 2021 in Yan’an. The positions of the traps within the plot were randomly arranged. Every 5 days, counts were taken, and the traps were rotated to the adjacent position to avoid any potential position effects. The septa loaded with sex pheromone components were replaced with new ones after every 15 days of suspension. The data were analyzed using a one-way ANOVA, and the differences in the average trapping of OFM and PFM males using sex attractants containing different amounts of Z8-14:Ac or Z10-14:Ac were further analyzed using Tukey’s HSD test, both of which were performed using SPSS 23.0.

OFM male antennae = assay: Electroantennogram (EAG) analysis; design: species or system Grapholita molesta
Experimental: Electroantennogram (EAG) equipment (Syntech, Hilversum, The Netherlands) was used to record the antennal responses of the OFM and PFM adults to Z8-12:Ac, E8-12:Ac, Z8-12:OH, Z8-14:Ac, and Z10-14:Ac. These sex pheromone compounds were diluted with liquid paraffin to prepare a stimulus solution of 100 μg/μL, which was subsequently diluted to 10 and 1 μg/μL. Antenna from 3-day-old OFM and 2- to 4-day-old PFM virgin males were excised at its base, with the distal part of the terminal segment being removed. Then, the treated antenna was attached to electrode holders with SpectraR360 conducting gel. A stimulus controller (model CS-55, Syntegon Technology, Waiblingen, Germany) continuously supplied a humidified air stream at a rate of 500 mL/min. Then, 20 μL of each stimulus solution was adsorbed onto a twice-folded filter paper strip (0.5 cm × 4 cm) placed on the wide section of a l mL pipette tip, which served as an odorant cartridge. Vapor stimuli were delivered by an air compressor into the constant air stream described above, flowing in a copper delivery tube (i.d. 8 mm) with the outlet positioned approximately 1 cm from the antenna. The EAG amplitude tests of the OFM and PFM males’ responses to sex pheromones started with solvent control stimuli (20 μL of liquid paraffin), followed by stimulation with 20, 200, and 2000 μg doses (20 μL of 1.0, 10.0, and 100.0 μg/μL of liquid paraffin solutions, respectively) of stimulus in sequence. The solvent control was performed at the end of the run. To control for variations among antennae, each sample was tested on 10 antennae of different males. The EAG signals and data were analyzed using EAG 2000 software (Syntech, Hilversum, The Netherlands). The corrected EAG amplitude value = absolute EAG amplitude value − (EAGck1 + EAGck2)/2, where EAGck1 and EAGck2 represent the absolute EAG amplitude values of the solvent control before and after measuring each stimulus, respectively. The relative EAG response of the OFM and PFM males to the same doses of sex pheromones were subjected to an analysis of independent sample t-test (p = 0.05) using SPSS version 23.0 (IBM).

OFM males = assay: Field trapping with delta traps, pear orchard; format: in vivo, Grapholita molesta; conditions: for Inhibition Rate of OFM Males: vs 100:4:0
Experimental: as §1

PFM males [2] = assay: Field trapping with delta traps, pear orchard; format: in vivo, Grapholita funebrana
Experimental: as §1

[3] = Z8-12:Ac/E8-12:Ac/Z8-14:Ac 500/20/5 μg (100:4:1)
[4] = Z8-12:Ac/E8-12:Ac/Z8-14:Ac 500/20/10 μg (100:4:2)
[5] = Z8-12:Ac/E8-12:Ac/Z8-14:Ac 500/20/25 μg (100:4:5)
[6] = Z8-12:Ac/E8-12:Ac/Z8-14:Ac 500/20/50 μg (100:4:10)
[7] = Z8-12:Ac/E8-12:Ac/Z8-14:Ac 500/20/75 μg (100:4:15)
[8] = Z8-12:Ac/E8-12:Ac/Z8-14:Ac 500/20/100 μg (100:4:20)
[9] = Z8-12:Ac/E8-12:Ac/Z8-14:Ac 500/20/125 μg (100:4:25)
[10] = Z8-12:Ac/E8-12:Ac/Z8-14:Ac 500/20/150 μg (100:4:30)
[11] = adding 1–30% of Z8-14:Ac to the PFM sex attractants
[12] = pear orchard, Z8-12:Ac/E8-12:Ac/Z8-14:Ac 500/20/5 μg (100:4:1)
[13] = pear orchard, Z8-12:Ac/E8-12:Ac/Z8-14:Ac 500/20/10 μg (100:4:2)
[14] = pear orchard, Z8-12:Ac/E8-12:Ac/Z8-14:Ac 500/20/25 μg (100:4:5)
[15] = pear orchard, Z8-12:Ac/E8-12:Ac/Z8-14:Ac 500/20/50 μg (100:4:10)
[16] = pear orchard, Z8-12:Ac/E8-12:Ac/Z8-14:Ac 500/20/75 μg (100:4:15)
[17] = pear orchard, Z8-12:Ac/E8-12:Ac/Z8-14:Ac 500/20/100 μg (100:4:20)
[18] = pear orchard, Z8-12:Ac/E8-12:Ac/Z8-14:Ac 500/20/125 μg (100:4:25)
[19] = pear orchard, Z8-12:Ac/E8-12:Ac/Z8-14:Ac 500/20/150 μg (100:4:30)

Structure (SMILES): CCCCC/C=C\CCCCCCCOC(C)=O [Z8-14:Ac, (Z)-8-tetradecenyl acetate]
- Total PFM Males/Trap (PFM males [1]; [3]): 387.73 ± 18.31 a Males/Trap
- Total PFM Males/Trap (PFM males [1]; [4]): 287.22 ± 7.96 a Males/Trap
- Total PFM Males/Trap (PFM males [1]; [5]): 314.53 ± 26.14 a Males/Trap
- Total PFM Males/Trap (PFM males [1]; [6]): 331.58 ± 17.46 a Males/Trap
- Total PFM Males/Trap (PFM males [1]; [7]): 297.81 ± 4.75 a Males/Trap
- Total PFM Males/Trap (PFM males [1]; [8]): 285.62 ± 6.55 a Males/Trap
- Total PFM Males/Trap (PFM males [1]; [9]): 352.89 ± 32.42 a Males/Trap
- Total PFM Males/Trap (PFM males [1]; [10]): 348.30 ± 22.77 a Males/Trap
- effect on the number of PFM males (PFM males [1]; [11]): neither significantly increased nor inhibited
- EAG values of OFM males compared with PFM males (OFM male antennae; 20, 200 and 2000 μg): significantly higher than those of the PFM males
- EAG response of OFM males (OFM male antennae; 20, 200 and 2000 μg doses): moderate EAG response
- maximum reduction of the capture of OFM males (OFM males; field trials, varying ratios of Z8-14:Ac (1% to 30%) added to Z8-12:Ac and E8-12:Ac): up to 96.54%
- Total OFM Males/Trap (OFM males; [12]): 59.24 ± 10.14 b Males/Trap
- Inhibition Rate of OFM Males (OFM males; [12]): 65.04%
- Total OFM Males/Trap (OFM males; [13]): 61.31 ± 7.21 b Males/Trap
- Inhibition Rate of OFM Males (OFM males; [13]): 63.82%
- Total OFM Males/Trap (OFM males; [14]): 21.36 ± 6.22 c Males/Trap
- Inhibition Rate of OFM Males (OFM males; [14]): 87.40%
- Total OFM Males/Trap (OFM males; [15]): 12.05 ± 0.91 c Males/Trap
- Inhibition Rate of OFM Males (OFM males; [15]): 92.89%
- Total OFM Males/Trap (OFM males; [16]): 8.95 ± 2.69 c Males/Trap
- Inhibition Rate of OFM Males (OFM males; [16]): 94.72%
- Total OFM Males/Trap (OFM males; [17]): 12.74 ± 6.57 c Males/Trap
- Inhibition Rate of OFM Males (OFM males; [17]): 92.48%
- Total OFM Males/Trap (OFM males; [18]): 5.86 ± 1.50 c Males/Trap
- Inhibition Rate of OFM Males (OFM males; [18]): 96.54%
- Total OFM Males/Trap (OFM males; [19]): 10.33 ± 2.98 c Males/Trap
- Inhibition Rate of OFM Males (OFM males; [19]): 93.90%
- reduction of the number of OFM males caught (OFM males; pear orchard, adding 5–30% of Z8-14:Ac to Z8-12:Ac and E8-12:Ac): more than 86%
- reduction of the capture of OFM males (OFM males; pear orchards, adding 1–2% of Z8-14:Ac to Z8-12:Ac and E8-12:Ac (100:4)): 63.82–65.04%
- Total PFM Males/Trap (PFM males [2]; [3]): 64.07 ± 6.89 a Males/Trap
- Total PFM Males/Trap (PFM males [2]; [4]): 45.47 ± 6.64 a Males/Trap
- Total PFM Males/Trap (PFM males [2]; [5]): 43.06 ± 0.34 a Males/Trap
- Total PFM Males/Trap (PFM males [2]; [6]): 53.73 ± 7.04 a Males/Trap
- Total PFM Males/Trap (PFM males [2]; [7]): 48.57 ± 6.31 a Males/Trap
- Total PFM Males/Trap (PFM males [2]; [8]): 42.36 ± 8.46 a Males/Trap
- Total PFM Males/Trap (PFM males [2]; [9]): 57.52 ± 21.06 a Males/Trap
- Total PFM Males/Trap (PFM males [2]; [10]): 72.67 ± 12.44 a Males/Trap
- effect on the number of PFM males (PFM males [2]; [11]): neither significantly increased nor inhibited
